Data published in ChEMBL document CHEMBL1201862, “PubChem BioAssay data set” (2004).
Calls of active or inactive are those of the source.

How the values were obtained:
[1] = cytotoxicity toward DRD oncogenic fibroblasts, dose response, cell-based, non-viral oncogenic, luminescence (AID 1934); assay type: functional; details: Homo sapiens
BJ [2] = test: cells; assay type: functional, cell-based; details: Homo sapiens
[3] = Luminescence Cell-Based Dose Response HTS to Identify Inhibitors of 5'UTR Stem-Loop Driven Prion Protein mRNA Translation in H4 Neuroglioblastoma Cells. [Related pubchem assays: 1827 (Project Summary), 1813 (Primary HTS)]; assay type: functional
[4] = inhibitors of firefly luciferase expression or activity, dose response, H4 neuroglioma cells, luminescence (AID 1990); assay type: functional, cell-based
[5] = inhibitors of SNCA 5'UTR-driven reporter translation, confirmation, H4 neuroglioma cells, luminescence (AID 1988); assay type: functional, cell-based
BJ [6] = test: cytotoxicity toward BJ-TERT-LT-ST fibroblasts, dose response, cell-based, RAS-independent, luminescence (AID 1935); assay type: functional; details: Homo sapiens;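 note: BJ fibroblasts immortalized with TERT plus LT and ST oncogenes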
BJ [7] = test: cytotoxicity toward BJ-TERT fibroblasts, dose response, cell-based, RAS-independent, luminescence (AID 1933); assay type: functional; details: Homo sapiens
[8] = cytotoxicity in HEK-293T cells, dose response, cytotoxicity control for TCR NF-kB inhibitor project, luminescence, T-cell screen hits (AID 489026); assay type: functional, cell-based;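 note: cells exposed to compound about 14 hours before the viability readout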
[9] = cytotoxicity in HEK-293T cells, dose response, cytotoxicity control for BCR NF-kB inhibitor project, luminescence, B-cell screen hits (AID 489021); assay type: functional, cell-based;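 note: HEK-293T cells carrying an NF-kB luciferase reporter; cells exposed to compound for about 14 hours before viability readout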
[10] = inhibitors of PGC1a acetylation in cells, dose response, cell-based, cherry-picked samples (AID 720514); assay type: functional;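 note: potency may reflect raised or lowered acetylation signal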
[11] = molecular target: Peroxisome proliferator-activated receptor gamma/Nuclear receptor coactivator 1 (Homo sapiens, UniProt P37231); assay type: functional;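 note: agonist potency as compounds enhance coactivator SRC-1 recruitment to PPARgamma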
[12] = molecular target: Peroxisome proliferator-activated receptor gamma/Nuclear receptor coactivator 2 (Homo sapiens, UniProt P37231); assay type: functional;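 note: agonist potency for raising coactivator recruitment to the receptor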
[13] = molecular target: Peroxisome proliferator-activated receptor gamma/Nuclear receptor coactivator 3 (Homo sapiens, UniProt P37231); assay type: functional;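 note: agonist potency for raising coactivator recruitment to the receptor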
[14] = molecular target: T1, Rac GTPase-activating protein 1 (Homo sapiens, UniProt Q9H0H5); test: MgcRacGAP GTPase-activating activity inhibitors, confirmation, biochemical, ADP Hunter fluorescence, primary and confirmatory (AID 624330); assay type: functional
T1 sequence (Q9H0H5 whole entry): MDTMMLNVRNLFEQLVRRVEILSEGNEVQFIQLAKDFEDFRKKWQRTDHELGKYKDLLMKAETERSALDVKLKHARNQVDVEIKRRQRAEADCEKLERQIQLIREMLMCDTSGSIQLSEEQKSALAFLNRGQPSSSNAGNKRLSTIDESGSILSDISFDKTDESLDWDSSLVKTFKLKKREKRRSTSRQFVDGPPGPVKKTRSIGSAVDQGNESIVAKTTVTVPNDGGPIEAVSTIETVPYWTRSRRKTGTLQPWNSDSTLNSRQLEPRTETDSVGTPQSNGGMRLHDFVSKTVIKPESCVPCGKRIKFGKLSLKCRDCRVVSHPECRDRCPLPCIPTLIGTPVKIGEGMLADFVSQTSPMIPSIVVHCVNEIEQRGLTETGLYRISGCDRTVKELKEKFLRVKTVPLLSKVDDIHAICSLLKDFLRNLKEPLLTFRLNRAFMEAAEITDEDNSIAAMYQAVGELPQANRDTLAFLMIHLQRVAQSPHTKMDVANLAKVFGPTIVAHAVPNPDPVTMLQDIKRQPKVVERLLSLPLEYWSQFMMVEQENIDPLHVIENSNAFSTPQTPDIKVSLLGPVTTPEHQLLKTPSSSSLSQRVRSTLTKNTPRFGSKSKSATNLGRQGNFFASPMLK

[15] = molecular target: DNA dC->dU-editing enzyme APOBEC-3G (Homo sapiens, UniProt Q9HC16); test: Dose Response confirmation of small molecule APOBEC3G DNA Deaminase Inhibitors via a fluorescence-based single-stranded DNA deaminase assay. [Related pubchem assays (depositor defined):AID493012, AID493028]; assay type: functional
[16] = molecular target: DNA dC->dU-editing enzyme APOBEC-3A (Homo sapiens, UniProt P31941); test: APOBEC3A DNA deaminase inhibitors, dose response, biochemical (AID 504722); assay type: functional
[17] = HEp-2 cell cytotoxicity, dose response, cytotoxicity control for RSV inhibitor project, HTS (AID 2410); assay type: functional; details: human respiratory syncytial virus
[18] = molecular target: T2, Short transient receptor potential channel 4 (Mus musculus, UniProt Q9QUQ5); test: mouse TRPC4 channel inhibitors, dose response, cell-based, HEK293 TRPC4/mu-opioid, Fluo-4 calcium (AID 434942); assay type: functional;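 note: potency of inhibitors blocking the TRPC4 calcium response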
T2 sequence (Q9QUQ5 whole entry): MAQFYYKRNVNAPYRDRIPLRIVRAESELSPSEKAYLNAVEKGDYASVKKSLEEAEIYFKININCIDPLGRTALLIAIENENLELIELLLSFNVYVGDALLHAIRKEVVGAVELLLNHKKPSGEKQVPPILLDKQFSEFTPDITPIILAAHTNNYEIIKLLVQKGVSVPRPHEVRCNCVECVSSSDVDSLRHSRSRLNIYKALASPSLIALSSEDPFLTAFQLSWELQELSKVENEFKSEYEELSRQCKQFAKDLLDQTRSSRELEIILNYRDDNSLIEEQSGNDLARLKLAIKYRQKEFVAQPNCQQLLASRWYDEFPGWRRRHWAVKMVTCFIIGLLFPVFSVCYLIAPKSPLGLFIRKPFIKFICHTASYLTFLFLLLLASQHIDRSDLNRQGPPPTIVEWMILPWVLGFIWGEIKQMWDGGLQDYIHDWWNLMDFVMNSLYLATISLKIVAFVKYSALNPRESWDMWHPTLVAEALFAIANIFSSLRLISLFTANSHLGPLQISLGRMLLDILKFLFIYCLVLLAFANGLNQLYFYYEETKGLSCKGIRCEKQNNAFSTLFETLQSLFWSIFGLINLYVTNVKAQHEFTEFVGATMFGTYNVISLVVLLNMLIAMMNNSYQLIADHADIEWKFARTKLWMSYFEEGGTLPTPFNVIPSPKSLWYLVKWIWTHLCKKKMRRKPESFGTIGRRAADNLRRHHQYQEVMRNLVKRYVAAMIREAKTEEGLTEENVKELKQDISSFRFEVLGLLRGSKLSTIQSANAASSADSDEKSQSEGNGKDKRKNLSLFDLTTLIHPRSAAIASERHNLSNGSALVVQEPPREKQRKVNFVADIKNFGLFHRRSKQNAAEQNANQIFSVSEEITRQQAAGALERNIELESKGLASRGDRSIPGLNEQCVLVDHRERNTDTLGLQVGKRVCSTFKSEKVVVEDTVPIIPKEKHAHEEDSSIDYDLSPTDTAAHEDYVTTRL

DNA dC->dU-editing enzyme APOBEC-3A, sequence (P31941 whole entry): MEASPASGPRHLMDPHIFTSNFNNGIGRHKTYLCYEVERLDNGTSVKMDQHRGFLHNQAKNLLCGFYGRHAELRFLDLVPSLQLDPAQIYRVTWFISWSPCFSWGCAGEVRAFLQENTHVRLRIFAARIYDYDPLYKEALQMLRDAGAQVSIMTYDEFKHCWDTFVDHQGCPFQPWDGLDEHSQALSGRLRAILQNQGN
DNA dC->dU-editing enzyme APOBEC-3G, sequence (Q9HC16 whole entry): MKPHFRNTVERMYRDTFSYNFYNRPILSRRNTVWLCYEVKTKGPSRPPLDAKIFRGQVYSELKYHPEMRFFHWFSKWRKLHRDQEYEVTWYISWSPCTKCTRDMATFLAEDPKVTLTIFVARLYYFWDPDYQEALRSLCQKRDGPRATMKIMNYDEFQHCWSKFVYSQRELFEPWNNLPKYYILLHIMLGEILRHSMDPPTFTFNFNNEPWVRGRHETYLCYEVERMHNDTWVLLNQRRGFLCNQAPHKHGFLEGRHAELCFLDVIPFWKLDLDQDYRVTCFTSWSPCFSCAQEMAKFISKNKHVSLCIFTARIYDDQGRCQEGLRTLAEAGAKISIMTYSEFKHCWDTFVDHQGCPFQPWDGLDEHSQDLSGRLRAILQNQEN
Peroxisome proliferator-activated receptor gamma/Nuclear receptor coactivator 3, sequence (P37231 whole entry): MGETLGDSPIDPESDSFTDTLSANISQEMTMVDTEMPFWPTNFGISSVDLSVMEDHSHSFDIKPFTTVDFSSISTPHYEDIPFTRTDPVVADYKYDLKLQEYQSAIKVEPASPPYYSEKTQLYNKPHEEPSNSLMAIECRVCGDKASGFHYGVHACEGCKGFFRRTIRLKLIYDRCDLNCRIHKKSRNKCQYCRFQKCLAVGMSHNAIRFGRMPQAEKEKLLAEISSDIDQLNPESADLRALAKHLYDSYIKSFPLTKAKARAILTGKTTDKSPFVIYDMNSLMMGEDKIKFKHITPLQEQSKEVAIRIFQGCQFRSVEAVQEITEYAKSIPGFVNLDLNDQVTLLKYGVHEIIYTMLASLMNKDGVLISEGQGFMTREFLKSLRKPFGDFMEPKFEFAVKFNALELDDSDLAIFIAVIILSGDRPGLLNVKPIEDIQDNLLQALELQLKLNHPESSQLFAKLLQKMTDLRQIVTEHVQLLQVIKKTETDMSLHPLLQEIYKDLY
Peroxisome proliferator-activated receptor gamma/Nuclear receptor coactivator 3, sequence (Q9Y6Q9 whole entry, further chain): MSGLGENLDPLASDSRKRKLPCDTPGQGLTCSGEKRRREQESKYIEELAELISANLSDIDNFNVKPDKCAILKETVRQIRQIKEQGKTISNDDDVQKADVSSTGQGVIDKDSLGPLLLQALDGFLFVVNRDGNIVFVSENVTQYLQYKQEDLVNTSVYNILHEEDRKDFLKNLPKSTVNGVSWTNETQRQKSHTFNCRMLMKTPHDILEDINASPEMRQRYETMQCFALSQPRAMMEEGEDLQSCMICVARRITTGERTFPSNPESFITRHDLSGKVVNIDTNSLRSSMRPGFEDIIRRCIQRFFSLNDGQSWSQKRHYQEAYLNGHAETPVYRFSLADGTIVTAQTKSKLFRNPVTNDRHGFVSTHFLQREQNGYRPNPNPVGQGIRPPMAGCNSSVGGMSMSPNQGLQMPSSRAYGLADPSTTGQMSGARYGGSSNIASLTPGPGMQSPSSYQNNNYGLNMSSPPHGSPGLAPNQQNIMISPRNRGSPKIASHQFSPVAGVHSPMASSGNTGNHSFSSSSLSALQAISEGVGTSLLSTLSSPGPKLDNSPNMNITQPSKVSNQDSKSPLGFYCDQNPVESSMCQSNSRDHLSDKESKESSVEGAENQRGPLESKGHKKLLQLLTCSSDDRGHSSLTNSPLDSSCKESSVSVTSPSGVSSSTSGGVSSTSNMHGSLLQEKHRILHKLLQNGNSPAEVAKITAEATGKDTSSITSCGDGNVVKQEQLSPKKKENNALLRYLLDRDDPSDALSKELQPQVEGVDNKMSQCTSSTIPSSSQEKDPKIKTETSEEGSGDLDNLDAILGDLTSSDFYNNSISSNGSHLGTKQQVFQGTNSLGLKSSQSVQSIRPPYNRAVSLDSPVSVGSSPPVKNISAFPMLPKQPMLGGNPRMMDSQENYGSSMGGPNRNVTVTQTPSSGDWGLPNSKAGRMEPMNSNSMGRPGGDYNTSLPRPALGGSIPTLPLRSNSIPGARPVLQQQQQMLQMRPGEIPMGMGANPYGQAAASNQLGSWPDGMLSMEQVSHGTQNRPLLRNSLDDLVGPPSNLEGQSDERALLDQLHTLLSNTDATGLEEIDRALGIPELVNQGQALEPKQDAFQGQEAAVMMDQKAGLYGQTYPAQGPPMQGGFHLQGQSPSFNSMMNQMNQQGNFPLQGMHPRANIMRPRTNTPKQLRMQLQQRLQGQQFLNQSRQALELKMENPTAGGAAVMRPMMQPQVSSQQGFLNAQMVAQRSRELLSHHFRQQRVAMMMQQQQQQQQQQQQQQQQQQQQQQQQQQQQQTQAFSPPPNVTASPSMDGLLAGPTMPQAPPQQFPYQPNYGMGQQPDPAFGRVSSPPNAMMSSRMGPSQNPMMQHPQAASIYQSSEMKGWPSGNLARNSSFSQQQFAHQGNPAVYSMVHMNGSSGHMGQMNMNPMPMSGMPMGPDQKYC
Peroxisome proliferator-activated receptor gamma/Nuclear receptor coactivator 1, sequence (P37231 whole entry): as the sequence (P37231 whole entry) above
Peroxisome proliferator-activated receptor gamma/Nuclear receptor coactivator 1, sequence (Q15788 whole entry, further chain): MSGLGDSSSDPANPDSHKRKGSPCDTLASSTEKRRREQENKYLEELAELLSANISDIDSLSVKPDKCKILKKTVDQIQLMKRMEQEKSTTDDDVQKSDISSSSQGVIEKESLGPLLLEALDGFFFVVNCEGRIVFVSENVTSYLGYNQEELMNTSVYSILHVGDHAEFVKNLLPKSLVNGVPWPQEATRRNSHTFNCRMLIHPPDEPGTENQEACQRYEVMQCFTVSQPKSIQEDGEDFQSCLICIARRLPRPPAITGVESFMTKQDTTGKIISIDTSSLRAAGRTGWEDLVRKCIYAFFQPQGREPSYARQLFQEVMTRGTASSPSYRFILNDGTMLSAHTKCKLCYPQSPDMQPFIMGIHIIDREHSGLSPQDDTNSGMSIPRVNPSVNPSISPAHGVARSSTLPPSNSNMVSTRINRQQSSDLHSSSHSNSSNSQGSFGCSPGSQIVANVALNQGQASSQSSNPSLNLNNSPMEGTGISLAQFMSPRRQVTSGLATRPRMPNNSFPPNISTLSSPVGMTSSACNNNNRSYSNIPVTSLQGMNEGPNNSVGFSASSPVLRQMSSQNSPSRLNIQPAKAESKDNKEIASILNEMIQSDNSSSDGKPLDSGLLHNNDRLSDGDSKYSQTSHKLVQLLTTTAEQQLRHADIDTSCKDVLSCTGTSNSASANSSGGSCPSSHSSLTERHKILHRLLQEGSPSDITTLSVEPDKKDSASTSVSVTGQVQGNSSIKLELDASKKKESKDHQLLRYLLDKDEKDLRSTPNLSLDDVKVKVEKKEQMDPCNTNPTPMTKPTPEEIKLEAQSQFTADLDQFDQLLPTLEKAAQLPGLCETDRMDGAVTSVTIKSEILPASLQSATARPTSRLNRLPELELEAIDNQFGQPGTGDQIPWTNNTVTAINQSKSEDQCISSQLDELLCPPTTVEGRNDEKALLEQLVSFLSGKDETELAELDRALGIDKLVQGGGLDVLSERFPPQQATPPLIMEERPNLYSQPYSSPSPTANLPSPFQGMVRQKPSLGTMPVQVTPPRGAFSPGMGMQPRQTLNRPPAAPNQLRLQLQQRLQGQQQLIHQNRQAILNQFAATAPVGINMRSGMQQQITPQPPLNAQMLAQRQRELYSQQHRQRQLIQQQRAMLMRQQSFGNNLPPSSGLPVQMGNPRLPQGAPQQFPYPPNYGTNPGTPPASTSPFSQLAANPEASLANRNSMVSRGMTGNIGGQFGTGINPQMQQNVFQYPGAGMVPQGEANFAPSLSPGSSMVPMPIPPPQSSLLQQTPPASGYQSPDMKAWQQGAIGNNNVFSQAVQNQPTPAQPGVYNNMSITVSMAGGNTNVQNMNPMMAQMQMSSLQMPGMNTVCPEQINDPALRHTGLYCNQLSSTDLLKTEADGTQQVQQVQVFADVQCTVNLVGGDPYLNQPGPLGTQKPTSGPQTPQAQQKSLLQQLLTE

SMILES: COc1ccc(-n2nnnc2-c2cccc(OC)c2)cc1
- EC50 [1]: 2.04 µM (active)
- EC50 (BJ [2]): 109 µM (active)
- EC50 [3]: 11.6 µM (active)
- EC50 [4]: 4.68 µM (inconclusive)
- EC50 [5]: 0.824 µM (inconclusive)
- EC50 (BJ [6]): 2.71 µM (active)
- EC50 (BJ [7]): 8.48 µM (active)
- IC50 [8]: > 80 µM (inactive)

SMILES: Cc1cc(OCC(=O)NC2CC2)c2c(C)c(C)c(=O)oc2c1
- IC50 [9]: > 80 µM (inactive)

SMILES: Cc1ccc(/C=C2\SC(=S)N(CCC(=O)NNC(=O)c3ccncc3)C2=O)cc1
- IC50 [9]: > 80 µM (inactive)

SMILES: Cc1cc(OCC(=O)Nc2ccc(CCO)cc2)c2c(C)c(C)c(=O)oc2c1
- IC50 [9]: > 80 µM (inactive)

SMILES: C[C@H](CO)N1C[C@H](C)[C@H](CN(C)Cc2ccccc2)Oc2cc(Br)ccc2S1(=O)=O
- AC50 [10]: 25.8 µM (active)

SMILES: Fc1cccc(-c2ccc([C@@H]3[C@@H]4CN(Cc5nccs5)C[C@H]3N4)cc2)c1
- AC50 [10]: 17.6 µM (active)

SMILES: O=C(C[C@H]1CC[C@@H](NC(=O)c2ccccc2)[C@H](CO)O1)Nc1ccc(-c2ccccc2)cc1
- AC50 [10]: 4.76 µM (active)

SMILES: COc1ccc(OC)c2c1s/c(=N\C(=O)C(C)(C)C)n2C
- EC50 [11]: > 79.4 µM (not active)
- EC50 [12]: > 79.4 µM (not active)
- EC50 [13]: > 79.4 µM (not active)

SMILES: Cc1cc(-c2nnc(S)n2/N=C/c2cccc(O)c2)[nH]n1
- IC50 [14]: 157 µM (active)
- IC50 [15]: 2.51 µM (active)
- IC50 [16]: > 100 µM (inactive)

SMILES: CCOc1cc(/C=N\Nc2nc(Nc3ccccc3)nc(N3CCOCC3)n2)ccc1OC(=O)c1ccco1
- IC50 [9]: > 80 µM (inactive)

SMILES: Cc1nn(-c2ccccc2)c(C)c1/C=N/n1c(S)nnc1-c1ccncc1
- IC50 [15]: 2.75 µM (active)
- IC50 [16]: > 100 µM (inactive)
- CC50 [17]: > 50 µM (active)

SMILES: Cc1cc(N/N=C/c2ccccc2F)c2ccccc2n1
- EC50 [18]: 2.66 µM (active)
